Laboratory results published in patent publication US12509431B2, “1,4-dihydroquinazolinone compounds and uses thereof” (Edgewise Therapeutics, Inc., priority 2022, dated 2025).

How the values were obtained:
Format in all cases: biochemical
Conditions in all cases: Table 8
Porcine Atria myofibrils = assay: Myofibril ATPase assay (PK/LDH NADH-coupled), atria myofibrils
Procedure, shortened: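 Porcine atrial myofibril ATPase followed via PK/LDH-coupled NADH depletion, absorbance at 340 nm read every 1.5-2 min over 75 min. Slopes (mAU/min) normalized to vehicle as 100% and fit to a 4-parameter logistic; EC25% derived, plus EC50% for inhibitors.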

[1] = system: Rabbit Skeletal myofibrils (rabbit psoas muscle); assay: Myofibril ATPase assay (PK/LDH NADH-coupled), skeletal myofibrils
Procedure, shortened: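 Rabbit psoas myofibrils in pCa (PIPES/CaCl2/EGTA, pH 7.0) buffer; ADP coupled via PK/LDH to NADH loss, read at 340 nm every 1.5–2 min for 75 min. Slopes normalized to vehicle (100%) and fit to 4-parameter logistic for EC25, plus EC50 for inhibitors.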

[2] = target: T1, Porcine Ventricle myofibrils (left ventricle of Yucatan minipigs) (Sus scrofa, UniProt P79293); assay: Myofibril ATPase assay (PK/LDH NADH-coupled), ventricle myofibrils
T1 construct: Myofibrils from porcine cardiac muscle was isolated from the left ventricle of Yucatan minipigs; tissue Exemplar Genetics; host or cells: left ventricle of Yucatan minipigs
T1 sequence (P79293 whole entry): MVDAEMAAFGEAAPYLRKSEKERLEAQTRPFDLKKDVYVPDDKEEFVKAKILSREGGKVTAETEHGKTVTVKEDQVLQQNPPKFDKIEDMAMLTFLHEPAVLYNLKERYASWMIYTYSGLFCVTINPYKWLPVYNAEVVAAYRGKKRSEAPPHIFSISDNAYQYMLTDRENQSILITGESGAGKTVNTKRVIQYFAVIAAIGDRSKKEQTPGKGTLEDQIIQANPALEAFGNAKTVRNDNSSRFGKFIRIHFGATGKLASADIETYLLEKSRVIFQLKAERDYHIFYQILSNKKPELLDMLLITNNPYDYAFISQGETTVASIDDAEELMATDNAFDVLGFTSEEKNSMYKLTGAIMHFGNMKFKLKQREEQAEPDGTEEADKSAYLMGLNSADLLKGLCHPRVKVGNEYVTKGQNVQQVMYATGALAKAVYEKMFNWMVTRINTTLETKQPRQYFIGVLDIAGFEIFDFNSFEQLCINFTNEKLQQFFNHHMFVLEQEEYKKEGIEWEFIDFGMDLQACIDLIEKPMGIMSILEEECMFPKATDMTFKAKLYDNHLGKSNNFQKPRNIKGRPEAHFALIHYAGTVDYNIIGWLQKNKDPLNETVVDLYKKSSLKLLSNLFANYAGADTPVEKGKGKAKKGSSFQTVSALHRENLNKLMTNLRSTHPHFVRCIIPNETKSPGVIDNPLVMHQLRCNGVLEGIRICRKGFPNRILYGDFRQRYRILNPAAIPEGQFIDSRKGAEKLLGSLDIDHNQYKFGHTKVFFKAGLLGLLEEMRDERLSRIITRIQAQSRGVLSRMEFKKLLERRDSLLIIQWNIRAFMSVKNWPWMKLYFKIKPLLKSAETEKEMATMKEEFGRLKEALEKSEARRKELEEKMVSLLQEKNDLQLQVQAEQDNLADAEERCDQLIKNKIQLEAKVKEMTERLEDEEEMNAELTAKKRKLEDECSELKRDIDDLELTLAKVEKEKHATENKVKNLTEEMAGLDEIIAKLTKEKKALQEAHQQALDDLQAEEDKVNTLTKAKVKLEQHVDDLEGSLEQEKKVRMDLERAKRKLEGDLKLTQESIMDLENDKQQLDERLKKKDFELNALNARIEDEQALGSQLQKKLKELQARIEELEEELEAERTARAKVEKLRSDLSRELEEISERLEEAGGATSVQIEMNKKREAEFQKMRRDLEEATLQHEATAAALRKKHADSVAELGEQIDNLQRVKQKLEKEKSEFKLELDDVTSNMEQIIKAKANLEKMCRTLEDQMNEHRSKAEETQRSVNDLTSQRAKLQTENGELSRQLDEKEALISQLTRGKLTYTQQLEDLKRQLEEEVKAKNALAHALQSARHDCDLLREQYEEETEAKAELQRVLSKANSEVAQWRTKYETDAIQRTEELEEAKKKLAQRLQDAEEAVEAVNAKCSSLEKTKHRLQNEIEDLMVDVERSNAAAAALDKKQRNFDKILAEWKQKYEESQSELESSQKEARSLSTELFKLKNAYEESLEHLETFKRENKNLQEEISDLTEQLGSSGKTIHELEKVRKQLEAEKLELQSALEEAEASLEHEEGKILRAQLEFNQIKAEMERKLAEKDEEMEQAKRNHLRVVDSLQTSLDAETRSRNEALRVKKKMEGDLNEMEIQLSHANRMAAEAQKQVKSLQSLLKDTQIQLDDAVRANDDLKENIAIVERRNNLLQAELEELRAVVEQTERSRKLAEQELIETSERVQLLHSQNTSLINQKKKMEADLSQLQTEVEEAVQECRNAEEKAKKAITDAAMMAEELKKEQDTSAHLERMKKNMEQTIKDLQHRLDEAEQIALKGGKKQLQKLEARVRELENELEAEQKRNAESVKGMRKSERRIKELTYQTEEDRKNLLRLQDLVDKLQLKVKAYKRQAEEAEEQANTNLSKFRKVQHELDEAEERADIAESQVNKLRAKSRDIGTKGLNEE
Procedure, shortened: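 Yucatan minipig left-ventricle myofibrils; ATPase measured by PK/LDH-coupled NADH loss at 340 nm, read every 1.5-2 min for 75 min. Slopes normalized to vehicle (100%) and fit to 4-parameter logistic model; EC25 and, for inhibitors, EC50 calculated.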

| Structure (SMILES) | Porcine Atria IC25 (Porcine Atria myofibrils) [nM] | Rabbit Psoas IC25 [1] [nM] | Porcine Ventricle IC25 [2] [nM] |
| --- | --- | --- | --- |
| C[C@@H](NC(=O)CN1Cc2c(ccc(F)c2F)NC1=O)c1ncc(C#N)s1 [Compound B280] | 610 | 1080 | 6550 |
| C[C@@H](NC(=O)CN1Cc2c(ccc(F)c2F)NC1=O)c1ncc(C2COC2)cn1 [Compound B282] | 86130 | 100000 | 100000 |
| C[C@H](NC(=O)CN1Cc2c(ccc(F)c2F)NC1=O)c1ncc(C2COC2)cn1 [Compound B283] | 900 | 100000 | 6490 |
| C[C@@H](NC(=O)CN1Cc2c(ccc(F)c2F)NC1=O)c1cc2ccccc2cn1 [Compound B284] | 870 | 100000 | 440 |
| C[C@H](NC(=O)CN1Cc2c(ccc(F)c2F)NC1=O)c1cc2ccccc2cn1 [Compound B285] | 100000 | 100000 | 100000 |
| C[C@@H](NC(=O)CN1Cc2c(ccc(F)c2F)NC1=O)c1ccc2ncccc2n1 [Compound B286] | 550 | 40680 | 8790 |
| C[C@H](NC(=O)CN1Cc2c(ccc(F)c2F)NC1=O)c1ccc2ncccc2n1 [Compound B287] | 75650 | 100000 | 100000 |
| C[C@@H](NC(=O)CN1Cc2c(ccc(F)c2F)NC1=O)c1ccc2ccccc2n1 [Compound B288] | 260 | 3980 | 5290 |
| C[C@H](NC(=O)CN1Cc2c(ccc(F)c2F)NC1=O)c1ccc2ccccc2n1 [Compound B289] | 100000 | 100000 | 100000 |
| C[C@@H](NC(=O)CN1Cc2c(ccc(F)c2F)NC1=O)c1ncc(Br)cc1F [Compound B292] | 160 | 420 | 540 |
| Cc1cccc2c1C1(CC1)N(CC(=O)N[C@H](C)c1cnc(C#N)cn1)C(=O)N2 [Compound B301] | 4280 | 2520 | 14900 |
| Cc1cccc2c1C1(CC1)N(CC(=O)N[C@@H](C)c1cnc(C#N)cn1)C(=O)N2 [Compound B302] | 1080 | 5650 | 2850 |
| Cc1cccc2c1C1(CC1)N(CC(=O)N[C@H](C)c1ncc(C#N)nc1C)C(=O)N2 [Compound B308] | 20750 | 100000 | 100000 |
| C[C@@H](NC(=O)CN1C(=O)Nc2ccc(F)c(F)c2C12CC2)c1cnc(C#N)cn1 [Compound B314] | 40 | 120 | 500 |
| C[C@H](NC(=O)CN1C(=O)Nc2ccc(F)c(F)c2C12CC2)c1cnc(C#N)cn1 [Compound B315] | 50 | 20 | 90 |
| Cc1nc(C#N)cnc1[C@@H](C)NC(=O)CN1C(=O)Nc2ccc(F)c(F)c2C12CC2 [Compound B325] | 1040 | 2340 | 3210 |
| Cc1nc(C#N)cnc1[C@H](C)NC(=O)CN1C(=O)Nc2ccc(F)c(F)c2C12CC2 [Compound B326] | 160 | 20 | 60 |
| Cc1cc(C#N)nnc1[C@@H](C)NC(=O)CN1C(=O)Nc2ccc(F)cc2C12CC2 [Compound B328] | 1530 | 100000 | 100000 |
| Cc1cc(C#N)nnc1[C@H](C)NC(=O)CN1C(=O)Nc2ccc(F)cc2C12CC2 [Compound B329] | 200 | 130 | 420 |
| Cc1nc(C#N)cnc1[C@@H](C)NC(=O)CN1C(=O)Nc2ccc(F)cc2C12CC2 [Compound B330] | 80 | 50 | 190 |
| Cc1nc(C#N)cnc1[C@H](C)NC(=O)CN1C(=O)Nc2ccc(F)cc2C12CC2 [Compound B331] | 370 | 100000 | 66750 |
| Cc1nc(C#N)ncc1[C@@H](C)NC(=O)CN1C(=O)Nc2ccc(F)cc2C12CC2 [Compound B332] | 60 | 60 | 100 |
| Cc1nc(C#N)ncc1[C@H](C)NC(=O)CN1C(=O)Nc2ccc(F)cc2C12CC2 [Compound B333] | 100000 | 100000 | 100000 |

More lines, now with the values ahead:

| Porcine Atria IC25 (Porcine Atria myofibrils) [nM] | Rabbit Psoas IC25 [1] [nM] | Porcine Ventricle IC25 [2] [nM] | Structure (SMILES) |
| --- | --- | --- | --- |
| 46590 | 1830 | 39990 | N#Cc1cnc2c(c1)CC[C@H]2NC(=O)CN1C(=O)Nc2ccc(F)cc2C12CC2 [Compound B294] |
| 250 | 170 | 350 | N#Cc1cnc2c(c1)CC[C@@H]2NC(=O)CN1C(=O)Nc2ccc(F)cc2C12CC2 [Compound B295] |
| 70 | 60 | 390 | O=C(CN1C(=O)Nc2ccc(F)c(F)c2C12CC2)N[C@@H]1COc2cc(F)cnc21 [Compound B296] |
| 67410 | 63220 | 100000 | Cc1cccc2c1C1(CC1)N(CC(=O)N[C@@H]1COc3cc(C#N)cnc31)C(=O)N2 [Compound B299] |
| 1420 | 1390 | 1420 | Cc1cccc2c1C1(CC1)N(CC(=O)N[C@H]1COc3cc(C#N)cnc31)C(=O)N2 [Compound B300] |
| 80 | 20 | 90 | N#Cc1cc(F)c2c(c1)OC[C@H]2NC(=O)CN1C(=O)Nc2cccc(C#N)c2C12CC2 [Compound B303] |
| 1120 | 1050 | 3960 | N#Cc1cc(F)c2c(c1)OC[C@@H]2NC(=O)CN1C(=O)Nc2cccc(C#N)c2C12CC2 [Compound B304] |
| 100 | 610 | 180 | C[C@@H](NC(=O)CN1C(=O)Nc2ccc(F)c(F)c2C12CC2)c1ncc(C#N)cc1Cl [Compound B306] |
| 50 | 20 | 70 | C[C@H](NC(=O)CN1C(=O)Nc2ccc(F)c(F)c2C12CC2)c1ncc(C#N)cc1Cl [Compound B307] |
| 10360 | 2230 | 10570 | Cc1cccc2c1C1(CC1)N(CC(=O)N[C@@H](C)c1ncc(C#N)nc1C)C(=O)N2 [Compound B309] |
| 160 | 80 | 370 | N#Cc1cnc2c(c1)OC[C@H]2NC(=O)CN1C(=O)Nc2cccc(C#N)c2C12CC2 [Compound B310] |
| 100000 | 100000 | 86790 | N#Cc1cnc2c(c1)OC[C@@H]2NC(=O)CN1C(=O)Nc2cccc(C#N)c2C12CC2 [Compound B311] |
| 100 | 50 | 180 | Cc1cccc2c1C1(CC1)N(CC(=O)N[C@@H]1COc3cc(C#N)cc(F)c31)C(=O)N2 [Compound B312] |
| 2290 | 9120 | 3910 | Cc1cccc2c1C1(CC1)N(CC(=O)N[C@H]1COc3cc(C#N)cc(F)c31)C(=O)N2 [Compound B313] |
| 70 | 5960 | 100 | N#Cc1cc(F)c2c(c1)OC[C@H]2NC(=O)CN1C(=O)Nc2ccc(F)c(F)c2C12CC2 [Compound B319] |
| 230 | 330 | 240 | N#Cc1cc(F)c2c(c1)OC[C@@H]2NC(=O)CN1C(=O)Nc2ccc(F)c(F)c2C12CC2 [Compound B320] |
| 170 | 230 | 970 | N#Cc1cnc2c(c1)OC[C@H]2NC(=O)CN1C(=O)Nc2ccc(F)c(F)c2C12CC2 [Compound B321] |
| 70 | 30 | 60 | N#Cc1cnc2c(c1)OC[C@@H]2NC(=O)CN1C(=O)Nc2ccc(F)c(F)c2C12CC2 [Compound B322] |
| 100 | 630 | 320 | C[C@@H](NC(=O)CN1C(=O)Nc2ccc(F)c(F)c2C12CC2)c1ncc(C#N)cc1F [Compound B323] |
| 40 | 30 | 50 | C[C@H](NC(=O)CN1C(=O)Nc2ccc(F)c(F)c2C12CC2)c1ncc(C#N)cc1F [Compound B324] |
